Measurements published in ChEMBL document CHEMBL1131802, “Design and synthesis of beta-carboxamido phosphonates as potent inhibitors of imidazole glycerol phosphate dehydratase” (Bioorg Med Chem Lett, 1999).

Columns and labels:
[1] = target: T1, Imidazoleglycerol-phosphate dehydratase (Cryptococcus neoformans var. neoformans B-3501A, UniProt P0CO23); experiment: Binding affinity imidazole glycerol phosphate dehydratase (IGPD) obtained from Cryptococcus neoformans
[2] = target: Imidazoleglycerol-phosphate dehydratase (Cryptococcus neoformans var. neoformans B-3501A) (UniProt P0CO23); experiment: Kinetic constant for the inhibition of imidazole glycerol phosphate dehydratase (IGPD)
Sequence of Imidazoleglycerol-phosphate dehydratase (Cryptococcus neoformans var. neoformans B-3501A) (P0CO23 whole entry, looked up): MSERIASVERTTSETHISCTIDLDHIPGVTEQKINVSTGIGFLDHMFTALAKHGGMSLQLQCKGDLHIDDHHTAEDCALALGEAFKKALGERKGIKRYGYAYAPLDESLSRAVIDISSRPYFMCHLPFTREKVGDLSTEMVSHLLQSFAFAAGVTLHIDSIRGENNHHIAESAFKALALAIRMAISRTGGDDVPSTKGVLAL

[3] = target: T1, Imidazoleglycerol-phosphate dehydratase; experiment: Inhibitory concentration against imidazole glycerol phosphate dehydratase (IGPD) from Cryptococcus neoformans

T1 sequence (P0CO23 whole entry, looked up): as above

## O=C(NC(Cn1cncn1)CP(=O)(O)O)c1ccccc1 (centres undefined)
[1]
  Ki: 10000 nM
[2]
  Kis: 100 µM
[3]
  IC50: > 50000 nM

## COC(=O)CCCC(=O)NC(Cn1cncn1)CP(=O)(O)O (centres undefined)
[1]
  Ki: 700 nM
[2]
  Kis: 3.95 µM
[3]
  IC50: 2800 nM

## CC1(C)CC(=O)OC1CC(=O)NC(Cn1cncn1)CP(=O)(O)O (centres undefined)
[3]
  IC50: 2900 nM

## O=C(CCC(=O)c1ccccc1)NC(Cn1cncn1)CP(=O)(O)O (centres undefined)
[3]
  IC50: 20000 nM

## O=C(Cc1ccccc1)NC(Cn1cncn1)CP(=O)(O)O (centres undefined)
[1]
  Ki: 340 nM
[2]
  Kis: 3.9 µM
[3]
  IC50: 2700 nM

## O=C(CO)NC(Cn1cncn1)CP(=O)(O)O (centres undefined)
[1]
  Ki: 230 nM
[2]
  Kis: 1.23 µM
[3]
  IC50: 910 nM

## COCC(=O)NC(Cn1cncn1)CP(=O)(O)O (centres undefined)
[1]
  Ki: 2200 nM
[2]
  Kis: 17 µM
[3]
  IC50: 10000 nM

## O=C(/C=C/c1ccccc1)NC(Cn1cncn1)CP(=O)(O)O (centres undefined)
[1]
  Ki: 4500 nM
[2]
  Kis: 25 µM
[3]
  IC50: 21000 nM

## CC(Oc1ccccc1)C(=O)NC(Cn1cncn1)CP(=O)(O)O (centres undefined)
[1]
  Ki: 230 nM
[2]
  Kis: 1.22 µM
[3]
  IC50: 1500 nM

## O=P(O)(O)CC(O)Cn1cncn1 (centres undefined)
[1]
  Ki: 0.6 nM

## O=C(NC(Cn1cncn1)CP(=O)(O)O)C1CC1 (centres undefined)
[1]
  Ki: 4000 nM
[2]
  Kis: 19 µM
[3]
  IC50: 17000 nM

## CNC(=O)C(=O)NC(Cn1cncn1)CP(=O)(O)O (centres undefined)
[3]
  IC50: > 50000 nM

## O=C(NC(Cn1cncn1)CP(=O)(O)O)c1c(F)cccc1F (centres undefined)
[1]
  Ki: 1150 nM
[2]
  Kis: 5.8 µM
[3]
  IC50: 4600 nM

## O=C(NC(Cn1cncn1)CP(=O)(O)O)c1ccccc1O (centres undefined)
[1]
  Ki: 3500 nM
[2]
  Kis: 22 µM
[3]
  IC50: 16000 nM

## CC(=O)NC(Cn1cncn1)CP(=O)(O)O (centres undefined)
[1]
  Ki: 800 nM
[2]
  Kis: 6.1 µM
[3]
  IC50: 3900 nM

## O=C(Cc1cccs1)NC(Cn1cncn1)CP(=O)(O)O (centres undefined)
[1]
  Ki: 560 nM
[2]
  Kis: 2.4 µM
[3]
  IC50: 3500 nM

## O=C(CCc1ccccc1)NC(Cn1cncn1)CP(=O)(O)O (centres undefined)
[1]
  Ki: 270 nM
[2]
  Kis: 1.14 µM
[3]
  IC50: 960 nM

## CCCCc1ccc(C(=O)NC(Cn2cncn2)CP(=O)(O)O)cc1 (centres undefined)
[1]
  Ki: 1300 nM
[2]
  Kis: 5.9 µM
[3]
  IC50: 4100 nM

## NC(Cn1cncn1)CP(=O)(O)O (centres undefined)
[1]
  Ki: 15 nM

## CCC(=O)NC(Cn1cncn1)CP(=O)(O)O (centres undefined)
[1]
  Ki: 1200 nM
[2]
  Kis: 9 µM
[3]
  IC50: 6100 nM

## O=C(COc1ccc(Cl)cc1)NC(Cn1cncn1)CP(=O)(O)O (centres undefined)
[1]
  Ki: 550 nM
[2]
  Kis: 2.12 µM
[3]
  IC50: 2000 nM

## CCCCCC(=O)NC(Cn1cncn1)CP(=O)(O)O (centres undefined)
[1]
  Ki: 340 nM
[2]
  Kis: 1.22 µM
[3]
  IC50: 840 nM

## CC1(CCC(=O)NC(Cn2cncn2)CP(=O)(O)O)SCCS1 (centres undefined)
[3]
  IC50: 800 nM

## O=C(CSc1ccccc1)NC(Cn1cncn1)CP(=O)(O)O (centres undefined)
[1]
  Ki: 250 nM
[2]
  Kis: 1.26 µM
[3]
  IC50: 920 nM

## O=C(CCC1CCCC1)NC(Cn1cncn1)CP(=O)(O)O (centres undefined)
[1]
  Ki: 880 nM
[2]
  Kis: 3.7 µM
[3]
  IC50: 3100 nM

## CC(C)=CC(=O)NC(Cn1cncn1)CP(=O)(O)O (centres undefined)
[1]
  Ki: 1300 nM
[2]
  Kis: 5.5 µM
[3]
  IC50: 4500 nM

## C/C=C/C(=O)NC(Cn1cncn1)CP(=O)(O)O (centres undefined)
[1]
  Ki: 1450 nM
[2]
  Kis: 5.6 µM
[3]
  IC50: 4000 nM

## O=C(NC(Cn1cncn1)CP(=O)(O)O)c1ccco1 (centres undefined)
[1]
  Ki: 7500 nM
[2]
  Kis: 33 µM
[3]
  IC50: > 50000 nM

## O=C(CCc1cccc([N+](=O)[O-])c1)NC(Cn1cncn1)CP(=O)(O)O (centres undefined)
[3]
  IC50: 1500 nM

## O=C(COc1ccccc1)NC(Cn1cncn1)CP(=O)(O)O (centres undefined)
[1]
  Ki: 80 nM
[2]
  Kis: 0.27 µM
[3]
  IC50: 380 nM

## CC(C)(C)CC(=O)NC(Cn1cncn1)CP(=O)(O)O (centres undefined)
[1]
  Ki: 1130 nM
[2]
  Kis: 5 µM
[3]
  IC50: 4800 nM
